The target in the test is T1, α4β1 integrin (Homo sapiens, UniProt P05556+P13612).
T1 construct: endogenous in cells; host or cells: Ramos cells
The test is described as follows: Adhesion of calcein-labeled Ramos cells to CS1 (fibronectin) peptide conjugated ovalbumin. In kind it is cell-based. To be noted: Table 7; Ramos cell adhesion to CS1 conjugated ovalbumin; dose required to give 50% inhibition. The procedure, abridged:
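Plates bearing CS1 fibronectin peptide coupled to ovalbumin (0.5 μg/ml coat, 3% BSA block) received calcein-labelled Ramos cells plus compound (100 μM stated) for 30 min at 37 °C. Buffer was TBS pH 7.5 with 1 mM Mg2+, Ca2+, Mn2+; bound cells quantified by fluorescence after lysis; […].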

T1 sequence (P13612 34-1032): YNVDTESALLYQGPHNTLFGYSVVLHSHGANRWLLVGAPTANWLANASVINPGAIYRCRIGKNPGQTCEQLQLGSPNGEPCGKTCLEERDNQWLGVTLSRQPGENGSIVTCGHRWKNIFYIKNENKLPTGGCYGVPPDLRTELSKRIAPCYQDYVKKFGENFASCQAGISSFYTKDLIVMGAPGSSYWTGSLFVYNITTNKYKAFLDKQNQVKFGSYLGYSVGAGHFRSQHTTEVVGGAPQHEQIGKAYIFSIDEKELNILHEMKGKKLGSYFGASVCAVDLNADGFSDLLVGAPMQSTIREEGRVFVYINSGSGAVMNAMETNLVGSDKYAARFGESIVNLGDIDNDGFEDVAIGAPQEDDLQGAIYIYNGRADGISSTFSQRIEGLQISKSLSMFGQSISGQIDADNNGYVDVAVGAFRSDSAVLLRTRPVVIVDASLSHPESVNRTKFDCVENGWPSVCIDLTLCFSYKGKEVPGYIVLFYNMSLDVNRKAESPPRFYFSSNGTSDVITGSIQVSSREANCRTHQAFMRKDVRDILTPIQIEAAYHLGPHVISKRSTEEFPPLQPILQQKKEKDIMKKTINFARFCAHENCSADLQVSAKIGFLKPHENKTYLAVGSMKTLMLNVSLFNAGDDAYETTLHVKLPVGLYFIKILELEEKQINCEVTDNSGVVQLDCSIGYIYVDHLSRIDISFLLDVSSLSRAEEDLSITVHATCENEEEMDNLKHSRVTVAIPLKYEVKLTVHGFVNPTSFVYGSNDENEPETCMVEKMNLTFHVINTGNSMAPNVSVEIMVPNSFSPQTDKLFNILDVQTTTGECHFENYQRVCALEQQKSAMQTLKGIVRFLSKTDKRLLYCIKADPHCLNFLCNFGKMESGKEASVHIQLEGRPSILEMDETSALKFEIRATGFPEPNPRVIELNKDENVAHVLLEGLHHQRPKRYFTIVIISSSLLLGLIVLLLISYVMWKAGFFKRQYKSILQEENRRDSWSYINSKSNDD
T1 sequence (P05556 21-798): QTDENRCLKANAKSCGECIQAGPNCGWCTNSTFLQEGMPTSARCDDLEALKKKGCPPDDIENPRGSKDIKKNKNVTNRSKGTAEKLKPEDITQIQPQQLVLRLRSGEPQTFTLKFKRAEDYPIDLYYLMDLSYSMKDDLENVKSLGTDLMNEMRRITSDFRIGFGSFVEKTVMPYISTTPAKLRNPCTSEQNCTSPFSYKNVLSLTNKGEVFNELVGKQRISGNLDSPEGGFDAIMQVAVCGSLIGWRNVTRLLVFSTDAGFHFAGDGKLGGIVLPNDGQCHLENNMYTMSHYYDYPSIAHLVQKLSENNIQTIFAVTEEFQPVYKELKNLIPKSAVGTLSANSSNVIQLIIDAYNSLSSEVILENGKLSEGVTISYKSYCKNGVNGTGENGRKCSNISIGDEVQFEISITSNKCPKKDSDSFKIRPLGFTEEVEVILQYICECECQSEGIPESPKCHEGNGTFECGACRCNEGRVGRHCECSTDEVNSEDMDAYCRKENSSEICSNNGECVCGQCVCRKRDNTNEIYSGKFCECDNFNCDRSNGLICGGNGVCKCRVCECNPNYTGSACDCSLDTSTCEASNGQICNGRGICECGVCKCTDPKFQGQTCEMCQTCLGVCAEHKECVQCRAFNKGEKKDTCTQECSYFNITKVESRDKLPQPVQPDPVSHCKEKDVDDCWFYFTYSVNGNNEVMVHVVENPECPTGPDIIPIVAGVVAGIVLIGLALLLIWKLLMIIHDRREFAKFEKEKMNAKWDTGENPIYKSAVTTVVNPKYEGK

On to `O=C(O)CC(NC(=O)Nc1c(O)c2c(n(Cc3ccccc3Cl)c1=O)CCC2)c1ccc(-c2ccccc2)cc1` (stereo not shown), for which the IC50 is 0.03 µM.

Consider `Cc1cn(Cc2c(C)cccc2Cl)c(=O)c(NC(=O)NC(CC(=O)O)c2ccc(S(C)(=O)=O)cc2)c1O` (stereo not shown), for which the IC50 was 0.043 µM.

Consider `O=C(O)CC(NC(=O)Nc1c(O)c2c(n(Cc3ccccc3Cl)c1=O)CCC2)c1ccco1` (stereo not shown), for which the IC50 was 0.005 µM.

`Cc1cn(Cc2ccccc2Cl)c(=O)c(NC(=O)NC(CC(=O)O)c2ccco2)c1O` (stereo not shown): the IC50 is 0.004 µM.

For `Cc1ccc(C(CC(=O)O)NC(=O)Nc2c(O)c(C)cn(Cc3ccccc3Cl)c2=O)o1` (stereo not shown), the IC50 is 0.02 µM.

Take `CCOc1cccc(Cl)c1Cn1cc(C)c(O)c(NC(=O)NC(CC(=O)O)c2ccco2)c1=O` (stereo not shown): the IC50 is 0.008 µM.

In the case of `Cc1cn(Cc2ccccc2Cl)c(=O)c(NC(=O)NC(CC(=O)O)c2ccc(C3CC3)cc2)c1O` (stereo not shown), the IC50 is 0.035 µM.

`Cc1cn(Cc2ccccc2Cl)c(=O)c(NC(=O)N[C@H](c2ccccc2)c2nnn[nH]2)c1O`: the IC50 was > 10 µM.

Regarding `Cc1ccc([C@H](Cc2nnn[nH]2)NC(=O)Nc2c(O)c(C)cn(Cc3ccccc3Cl)c2=O)cc1`, the half-inhibitory concentration (IC50) is 6 µM.

Take `C[C@H](CC(=O)O)NC(=O)Nc1c(O)c2c(n(Cc3ccccc3Cl)c1=O)CCC2`: the IC50 was 0.015 µM.

Regarding `O=C(O)C[C@H](NC(=O)Nc1c(O)c2c(n(Cc3ccccc3Cl)c1=O)CCC2)c1cccc(-c2ccccc2)c1`, the IC50 was 0.017 µM.

For the compound `CCOc1ncc([C@H](CC(=O)O)NC(=O)Nc2c(O)c3c(n(Cc4ccccc4Cl)c2=O)CCC3)c(OCC)n1`, the IC50 is 0.015 µM.

With `CCOc1ccc(Cl)c(Cl)c1Cn1c2c(c(O)c(NC(=O)N[C@@H](CC(=O)O)c3cccc(OCC4CC4)c3)c1=O)CCC2`, the IC50 is 0.007 µM.

`O=C(O)C[C@H](NC(=O)Nc1c(O)c2c(n(Cc3ccccc3Cl)c1=O)CCC2)c1cc(C(F)(F)F)cc(C(F)(F)F)c1`: the half-maximal inhibitory concentration (IC50) was 0.13 µM.

Consider `Cc1ccc([C@H](CC(=O)O)NC(=O)Nc2c(O)c(C)cn(Cc3c(Cl)cccc3OCc3ccccc3)c2=O)cc1`, for which the IC50 was 0.01 µM.

On to `Cc1ccc([C@H](CC(=O)O)NC(=O)Nc2c(O)c(C)cn(Cc3cc(C(F)(F)F)ccc3Cl)c2=O)cc1`, for which the IC50 is 0.006 µM.

As for `Cc1ccc([C@H](CC(=O)O)NC(=O)Nc2c(O)c(C)cn(Cc3cc(F)ccc3Cl)c2=O)cc1`, the IC50 was 0.005 µM.

For the compound `Cc1ccc([C@H](CC(=O)O)NC(=O)Nc2c(O)c(C)cn(Cc3c(Cl)cccc3OCC3CCCC3)c2=O)cc1`, the IC50 is 0.02 µM.

In the case of `CCOc1cccc([C@H](CC(=O)O)NC(=O)Nc2c(O)c3c(n(Cc4c(Cl)cccc4OCC)c2=O)CCC3)c1`, the IC50 was 0.002 µM.

Consider `CCOc1cccc(Cl)c1Cn1c2c(c(O)c(NC(=O)N[C@@H](CC(=O)O)c3cccc(OC(C)C)c3)c1=O)CCC2`, for which the IC50 was 0.004 µM.

For the compound `CCOc1cccc([C@H](CC(=O)O)NC(=O)Nc2c(O)c(C)cn(Cc3c(Cl)cccc3OCC(C)C)c2=O)c1`, the IC50 is 0.014 µM.

Regarding `CCOc1cc([C@H](CC(=O)O)NC(=O)Nc2c(O)c3c(n(Cc4c(C)cccc4Cl)c2=O)CCC3)c(Cl)c(OCC)c1Cl`, the IC50 is 0.5 µM.

For `Cc1cccc(Cl)c1Cn1c2c(c(O)c(NC(=O)N[C@@H](CC(=O)O)c3ccc4c(c3)CCC4)c1=O)CCC2`, the IC50 is 0.01 µM.

With `Cc1cccc(Cl)c1Cn1c2c(c(O)c(NC(=O)N[C@@H](CC(=O)O)c3cccc(OCC4CC4)c3)c1=O)CCC2`, the IC50 was 0.01 µM.

With `CCCOc1cccc(Cl)c1Cn1cc(C)c(O)c(NC(=O)N[C@@H](CC(=O)O)c2cccc(OCC)c2)c1=O`, the IC50 was 0.005 µM.

Take `CCOc1cc([C@H](CC(=O)O)NC(=O)Nc2c(O)c3c(n(Cc4ccccc4Cl)c2=O)CCC3)cc(Cl)c1OCC`: the IC50 was 0.003 µM.

Consider `O=C(O)C[C@H](NC(=O)Nc1c(O)c2c(n(Cc3ccccc3Cl)c1=O)CCC2)c1ccc2c(c1)CCC2`, for which the IC50 is 0.008 µM.

As for `O=C(O)C[C@H](NC(=O)Nc1c(O)c2c(n(Cc3ccccc3Cl)c1=O)CCC2)c1ccc(C(F)(F)F)cc1`, the IC50 was 0.018 µM.

In the case of `O=C(O)C[C@H](NC(=O)Nc1c(O)c2c(n(Cc3ccccc3Cl)c1=O)CCC2)c1cccc(C(F)(F)F)c1`, the IC50 is 0.01 µM.

With `COc1ccc([C@H](CC(=O)O)NC(=O)Nc2c(O)c(C)cn(Cc3ccccc3Cl)c2=O)cc1C`, the IC50 was 0.009 µM.

Regarding `CCOc1ncc([C@H](CC(=O)O)NC(=O)Nc2c(O)c(C)cn(Cc3ccccc3Cl)c2=O)c(OCC)n1`, the IC50 was 0.013 µM.

As for `COc1ccccc1-c1cccc([C@H](CC(=O)O)NC(=O)Nc2c(O)c(C)cn(Cc3ccccc3Cl)c2=O)c1`, the IC50 is 0.015 µM.

As for `Cc1cn(Cc2ccccc2Cl)c(=O)c(NC(=O)N[C@@H](CC(=O)O)c2cccc3ccn(C)c23)c1O`, the IC50 was 0.03 µM.

Regarding `COc1cccc(OC)c1-c1ccc([C@H](CC(=O)O)NC(=O)Nc2c(O)c(C)cn(Cc3ccccc3Cl)c2=O)cc1`, the IC50 was 0.04 µM.

In the case of `COc1ccn(Cc2ccccc2Cl)c(=O)c1N(C)C(=O)N[C@@H](CC(=O)O)c1ccc(C)cc1`, the IC50 is 2 µM.

On to `CCOc1cccc([C@H](CC(=O)O)NC(=O)Nc2c(O)c3c(n(Cc4c(OCC)ccc(Cl)c4Cl)c2=O)CCC3)c1`, for which the IC50 is 0.003 µM.

In the case of `CCOc1ccc(Cl)c(Cl)c1Cn1c2c(c(O)c(NC(=O)N[C@@H](CC(=O)O)c3ccc(C)cc3)c1=O)CCC2`, the IC50 is 0.005 µM.

As to `CCOc1ccc(Cl)c(Cl)c1Cn1c2c(c(O)c(NC(=O)N[C@@H](CC(=O)O)c3cccc(OC(C)C)c3)c1=O)CCC2`, the IC50 was 0.005 µM.

With `CCCc1ccc([C@H](CC(=O)O)NC(=O)Nc2c(O)c3c(n(Cc4c(C)cccc4Cl)c2=O)CCC3)cc1`, the IC50 is 0.02 µM.

Consider `Cc1cccc(Cl)c1Cn1c2c(c(O)c(NC(=O)N[C@@H](CC(=O)O)c3ccc(C4CC4)cc3)c1=O)CCC2`, for which the IC50 was 0.019 µM.

Consider `Cc1cccc(Cl)c1Cn1c2c(c(O)c(NC(=O)N[C@@H](CC(=O)O)c3cccc(OC(F)F)c3)c1=O)CCC2`, for which the IC50 was 0.003 µM.

For the compound `Cc1cn(Cc2c(C)cccc2Cl)c(=O)c(NC(=O)N[C@@H](CC(=O)O)c2ccc3c(ccn3C)c2)c1O`, the IC50 is 0.004 µM.

Take `O=C(O)C[C@H](NC(=O)Nc1c(O)c2c(n(Cc3ccccc3Cl)c1=O)CCC2)c1cccc(OC(F)(F)F)c1`: the IC50 was 0.01 µM.

For `O=C(O)C[C@H](NC(=O)Nc1c(O)c2c(n(Cc3ccccc3Cl)c1=O)CCC2)c1ccc(OC(F)F)cc1`, the 50% inhibitory concentration (IC50) was 0.013 µM.

Consider `O=C(O)C[C@H](NC(=O)Nc1c(O)c2c(n(Cc3ccccc3Cl)c1=O)CCC2)c1ccc(OC(F)(F)F)cc1`, for which the IC50 was 0.013 µM.

Take `O=C(O)C[C@H](NC(=O)Nc1c(O)c2c(n(Cc3ccccc3Cl)c1=O)CCC2)c1cccc(F)c1`: the IC50 is 0.016 µM.

As for `O=C(O)C[C@H](NC(=O)Nc1c(O)c2c(n(Cc3ccccc3Cl)c1=O)CCC2)c1ccc(C2CC2)cc1`, the IC50 is 0.025 µM.

On to `CCOc1cc([C@H](CC(=O)O)NC(=O)Nc2c(O)c3c(n(Cc4ccccc4Cl)c2=O)CCC3)ccc1-c1ccccc1`, for which the IC50 is 0.02 µM.

In the case of `O=C(O)C[C@H](NC(=O)Nc1c(O)c2c(n(Cc3ccccc3Cl)c1=O)CCC2)c1cc(F)cc(F)c1`, the IC50 is 0.007 µM.

`O=C(O)C[C@H](NC(=O)Nc1c(O)c2c(n(Cc3ccccc3Cl)c1=O)CCC2)c1cnc2ccccc2c1`: the IC50 is 0.022 µM.

Regarding `CC(C)c1ccc([C@H](CC(=O)O)NC(=O)Nc2c(O)c3c(n(Cc4ccccc4Cl)c2=O)CCC3)cc1`, the IC50 is 0.017 µM.

`COc1c(C)cc([C@H](CC(=O)O)NC(=O)Nc2c(O)c3c(n(Cc4ccccc4Cl)c2=O)CCC3)cc1C`: the IC50 was 0.011 µM.

Turning to `O=C(O)C[C@H](NC(=O)Nc1c(O)c2c(n(Cc3ccccc3Cl)c1=O)CCC2)c1cccc(OC(F)(F)C(F)F)c1`, the IC50 was 0.004 µM.

For the compound `CCCc1ccc([C@H](CC(=O)O)NC(=O)Nc2c(O)c3c(n(Cc4ccccc4Cl)c2=O)CCC3)cc1`, the IC50 is 0.017 µM.

On to `CCc1ccc([C@H](CC(=O)O)NC(=O)Nc2c(O)c3c(n(Cc4ccccc4Cl)c2=O)CCC3)cc1`, for which the IC50 is 0.008 µM.

Regarding `O=C(O)C[C@H](NC(=O)Nc1c(O)c2c(n(Cc3ccccc3Cl)c1=O)CCC2)c1ccc(F)cc1`, the IC50 is 0.009 µM.

Take `COc1ccc([C@H](CC(=O)O)NC(=O)Nc2c(O)c3c(n(Cc4ccccc4Cl)c2=O)CCC3)cc1F`: the IC50 was 0.003 µM.

Consider `CCn1c2ccccc2c2cc([C@H](CC(=O)O)NC(=O)Nc3c(O)c4c(n(Cc5ccccc5Cl)c3=O)CCC4)ccc21`, for which the concentration for half-maximal inhibition (IC50) is 0.013 µM.

On to `Cc1cn(Cc2ccccc2Cl)c(=O)c(NC(=O)N[C@@H](CC(=O)O)c2ccc(OC3CC3)cc2)c1O`, for which the IC50 was 0.006 µM.

Take `CCn1c2ccccc2c2cc([C@H](CC(=O)O)NC(=O)Nc3c(O)c(C)cn(Cc4ccccc4Cl)c3=O)ccc21`: the IC50 was 0.023 µM.

As to `Cc1cn(Cc2ccccc2Cl)c(=O)c(NC(=O)N[C@@H](CC(=O)O)c2cnc3ccccc3c2)c1O`, the IC50 is 0.022 µM.

For `Cc1cn(Cc2ccccc2Cl)c(=O)c(NC(=O)N[C@@H](CC(=O)O)c2ccc(C(C)C)cc2)c1O`, the IC50 is 0.175 µM.

Regarding `CCOc1cc([C@H](CC(=O)O)NC(=O)Nc2c(O)c(C)cn(Cc3ccccc3Cl)c2=O)ccc1-c1ccccc1`, the IC50 was 0.025 µM.

In the case of `Cc1ccc(-c2cccc([C@H](CC(=O)O)NC(=O)Nc3c(O)c(C)cn(Cc4ccccc4Cl)c3=O)c2)cc1`, the IC50 was 0.023 µM.

For `CCCc1ccc([C@H](CC(=O)O)NC(=O)Nc2c(O)c(C)cn(Cc3ccccc3Cl)c2=O)cc1`, the IC50 was 0.012 µM.

Regarding `CCc1ccc([C@H](CC(=O)O)NC(=O)Nc2c(O)c(C)cn(Cc3ccccc3Cl)c2=O)cc1`, the IC50 is 0.03 µM.

As to `Cc1ccccc1-c1cccc([C@H](CC(=O)O)NC(=O)Nc2c(O)c(C)cn(Cc3ccccc3Cl)c2=O)c1`, the IC50 is 0.02 µM.

In the case of `Cc1ccccc1[C@H](CC(=O)O)NC(=O)Nc1c(O)c(C)cn(Cc2ccccc2Cl)c1=O`, the IC50 was 0.267 µM.

For the compound `Cc1cn(Cc2ccccc2Cl)c(=O)c(NC(=O)N[C@@H](CC(=O)O)c2ccc3c(c2)CCC3)c1O`, the IC50 is 0.018 µM.

For `Cc1cccc(-c2cccc([C@H](CC(=O)O)NC(=O)Nc3c(O)c(C)cn(Cc4ccccc4Cl)c3=O)c2)c1`, the IC50 was 0.018 µM.

For orientation: IC50 means the point on the concentration scale where inhibition reaches its midpoint.

Source of the values: patent publication US6972296B2, “Carboxylic acid derivatives that inhibit the binding of integrins to their receptors” (Encysive Pharmaceuticals Inc., priority 1999, dated 2005).
